Reference: US20080227752A1, “Methods to Inhibit Histone Acetyltransferase Using Glycosaminoglycans” (Trustees of Boston University, priority 2004, published 2008)

Molecular target: T1, p300 HAT domain (Homo sapiens, UniProt Q09472)
T1 construct: 20 U/mL of HAT enzyme (p300 HAT domain; from Upstate); purchased Upstate (Lake Placid, N.Y.)
T1 sequence (Q09472 1287-1663 limits assumed): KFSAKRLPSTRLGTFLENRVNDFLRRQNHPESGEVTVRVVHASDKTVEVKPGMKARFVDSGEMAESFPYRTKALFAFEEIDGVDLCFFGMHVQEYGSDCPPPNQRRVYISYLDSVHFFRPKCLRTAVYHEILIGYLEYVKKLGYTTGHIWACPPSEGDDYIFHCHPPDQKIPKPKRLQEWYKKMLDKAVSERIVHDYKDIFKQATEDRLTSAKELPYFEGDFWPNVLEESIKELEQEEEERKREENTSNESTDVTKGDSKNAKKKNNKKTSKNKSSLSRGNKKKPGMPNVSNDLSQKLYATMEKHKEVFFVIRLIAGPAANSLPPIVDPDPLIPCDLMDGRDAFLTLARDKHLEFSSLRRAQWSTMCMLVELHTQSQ
Assay: Core histone acetylation filter binding HAT assay, p300
Format: biochemical
Conditions: core histones, 30 minutes 30° C
Description: In the presence of 0.5 μCi [^3H]acetyl Co A, 10 μg core histones was incubated with either 0.5 μg pCAF (filled circles, […]) or 0.83 μg p300 HAT domain (open circles, ∘) and the indicated heparin concentrations for 30 minutes at 30° C. Formation of [^3H]acetylated core histones was determined by vacuum filtration of the samples across a nitrocellulose membrane and quantitated by liquid scintillation counting. The data is expressed as the mean % Control ±SD. Background CPM in samples without added enzyme was 5781.25 while [^3H]acetylated histone CPM in samples without heparin were 16484.5 for the pCAF containing samples and 9960.5 for the p300 HAT domain samples.
Heparin-mediated inhibition of HAT activity was determined using two independent methods. The first assay method used a modified protocol to measure the ability of pCAF or p300 to acetylate a synthetic, biotinylated peptide of histone H3 or H4 in the absence and presence of heparin or its derivatives. Commercially available pCAF or p300 HAT domain were added to an iced reactions mixture containing 3 μg biotinylated Histone H3 or H4 peptide, 50 mM tris pH 7.4, 1 mM EDTA with and without the indicated concentrations of heparin. […] The filter was allowed to air dry and the filters were processed and counted using liquid scintillation methods.

heparin [reference compound] was tested, and the “50% inhibition (IC50)” value was roughly 5 µg/mL.
